According to patent US10501458B2, “Substituted bicyclic fused ring compounds as indoleamine-2,3-dioxygenase inhibitors” (Merck Sharp & Dohme Corp., priority 2015, dated 2019):

Key:
IDO [1] = biological target: T1, IDO (Homo sapiens (Human), UniProt P14902); test: hIDO biochemical coupled assay; conditions: 45 μM L-tryptophan, 17 minutes at room temperature; for IC50: read-out: hIDO biochemical assay, pIC50 (converted)
Protocol: (§1) Exemplary compounds of the invention were prepared, and tested to determine their effect as TDO and/or IDO inhibitors. Two different assays were employed: 1. a cell-based assay for detecting the effect of test compounds on kynurenine production in two different cancer cell types. This assay utilised cancer cells which expressed either TDO or IDO and as such was used as a means of testing compound activity at these two enzymes in a cell-based context. 2. a TDO and IDO biochemical coupled assay which utilised recombinantly produced and purified TDO and IDO enzymes in combination with the enzyme formamidase. This coupled enzyme system allowed conversion of N-formylkynurenine produced by TDO or IDO activity to kynurenine which was then quantified by fluorescence following addition of Erhlich's Reagent The protocols for these are set out below.
(§2) TDO and IDO Biochemical Coupled Assay
(§3) Recombinant human IDO or TDO was incubated in 50 mM KPO4 (pH 7.0), 0.5 mM EGTA, 0.5 mM EDTA, 0.05% Triton™ X100, 20 mM ascorbate, 10 μM methylene blue, 500 U/ml catalase, 50 μg/ml KynB (kynurenine formamidase). TDO assays were carried out in the presence of 330 μM L-tryptophan, while IDO assays had the addition of 45 μM L-tryptophan. After incubation for 17 minutes at room temperature the reactions were stopped by the addition of Erhlich's reagent and incubated at room temperature for 5 minutes before the fluorescence was read (Ex 475, Em530).

IDO [2] = biological target: T1, IDO; test: SKOV3 kynurenine cell-based assay (IDO induced by IFN-γ); conditions: SKOV3 human ovarian adenocarcinoma cells, 500 ng/ml IFN-γ, 500 μM L-tryptophan, 48 hours; for IC50: read-out: SKOV3 Kynurenine cell based assay, pIC50 (converted)
Protocol: as §1
(§4) Cell Based Assay for Detection of Kynurenine Produced by TDO and/or IDO
(§5) A172 (human glioblastoma) and SKOV3 (human ovarian adenocarcinoma) cells were seeded in a 96 well plate at 30,000 or 40,000 cells per well respectively in phenol red-free RPMI supplemented with 10% FCS, 2 mM L-glutamine and 500 μM L-tryptophan. IDO expression was induced in the SKOV3 cells by the addition of 500 ng/ml IFN-γ. Cells were incubated at 37° C. with or without the addition of test compound. After 48 hours, the cells were removed by centrifugation and Erhlich's reagent was added to the supernatant. The Erhlich's reagent was incubated for 5 minutes before the absorbance was read at 490 nm.

TDO [3] = biological target: T2, TDO (Homo sapiens (Human), UniProt P48775); test: A172 kynurenine cell-based assay; conditions: A172 human glioblastoma cells, 500 μM L-tryptophan, 48 hours; for IC50: read-out: A172 Kynurenine cell based assay, pIC50 (converted)
T2 sequence (P48775 whole entry): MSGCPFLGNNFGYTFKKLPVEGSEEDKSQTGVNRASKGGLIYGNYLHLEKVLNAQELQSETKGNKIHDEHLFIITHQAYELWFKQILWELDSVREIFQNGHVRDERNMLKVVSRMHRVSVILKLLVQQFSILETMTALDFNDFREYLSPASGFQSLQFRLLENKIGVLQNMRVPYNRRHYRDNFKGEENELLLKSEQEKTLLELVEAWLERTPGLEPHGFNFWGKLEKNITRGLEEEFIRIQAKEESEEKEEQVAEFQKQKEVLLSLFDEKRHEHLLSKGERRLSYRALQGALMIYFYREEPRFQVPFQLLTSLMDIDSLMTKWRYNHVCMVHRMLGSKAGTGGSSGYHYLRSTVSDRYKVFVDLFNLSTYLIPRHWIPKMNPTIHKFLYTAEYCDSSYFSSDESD
Protocol: as §1, §4, §5

TDO [4] = biological target: T2, TDO; test: hTDO biochemical coupled assay; conditions: 330 μM L-tryptophan, 17 minutes at room temperature
Protocol: as §1, §2, §3

T1 sequence (P14902 whole entry): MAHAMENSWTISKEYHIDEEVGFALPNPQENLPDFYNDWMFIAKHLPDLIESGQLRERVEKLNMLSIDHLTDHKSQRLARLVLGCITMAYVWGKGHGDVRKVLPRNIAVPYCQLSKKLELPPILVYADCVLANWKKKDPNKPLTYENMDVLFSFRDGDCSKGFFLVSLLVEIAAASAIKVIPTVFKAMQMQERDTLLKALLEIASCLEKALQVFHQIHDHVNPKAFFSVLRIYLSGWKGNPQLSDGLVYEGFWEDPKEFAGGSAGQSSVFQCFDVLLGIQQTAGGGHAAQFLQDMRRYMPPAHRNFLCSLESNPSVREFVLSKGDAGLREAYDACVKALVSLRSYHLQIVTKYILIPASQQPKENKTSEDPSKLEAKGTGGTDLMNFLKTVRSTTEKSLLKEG

| SMILES | hIDO biochemical assay, pIC50 (IDO [1]) | SKOV3 Kynurenine cell based assay, pIC50 (IDO [2]) | A172 Kynurenine cell based assay, pIC50 (TDO [3]) | hTDO biochemical assay, pIC50 (TDO [4]) | IC50 (IDO [1]) | IC50 (IDO [2]) | IC50 (TDO [3]) | IC50 (TDO [4]; read-out: hTDO biochemical assay, pIC50 (converted)) |
| --- | --- | --- | --- | --- | --- | --- | --- | --- |
| O=C(Nc1cccn2cncc12)c1ccccc1 [Compound 1001] | +/− (+/− = pIC50 <4.00) | + (+ = pIC50 4.00-4.49) | +/− (+/− = pIC50 <4.00) | +/− (+/− = pIC50 <4.00) | – | – | – | – |
| CC(=O)N1CCN(c2cc(C(F)(F)F)cn3cncc23)CC1 [Compound 1002] | +/− (+/− = pIC50 <4.00) | + (+ = pIC50 4.00-4.49) | ++ (++ = pIC50 4.50-5.49) | – | – | – | – | – |
| CC(=O)N1CCC(c2cc(C(F)(F)F)cn3cncc23)CC1 [Compound 1004] | + (+ = pIC50 4.00-4.49) | +/− (+/− = pIC50 <4.00) | + (+ = pIC50 4.00-4.49) | – | – | – | – | – |
| CS(=O)(=O)c1ccc(-c2cc(C(F)(F)F)cn3cncc23)cc1 [Compound 1007] | + (+ = pIC50 4.00-4.49) | + (+ = pIC50 4.00-4.49) | +++ (+++ = pIC50 ≥5.50) | – | – | – | – | – |
| OCCc1cc(C(F)(F)F)cn2cncc12 [Compound 1008] | +/− (+/− = pIC50 <4.00) | + (+ = pIC50 4.00-4.49) | +/− (+/− = pIC50 <4.00) | +/− (+/− = pIC50 <4.00) | – | – | – | – |
| CS(=O)(=O)c1ccc(-c2cc(Cl)cn3cncc23)cc1 [Compound 1010, 6-chloro-8-(4-(methylsulfonyl)phenyl)imidazo[1,5-a]pyridine] | – | – | – | – | 3.24 to 31.6 µM | 32.4 to 100 µM | ≤ 3.16 µM | – |
| CS(=O)(=O)c1ccc(-c2cc(C(F)(F)F)cc3cncn23)cc1 [Compound 1015, 5-(4-(methylsulfonyl)phenyl)-7-(trifluoromethyl)imidazo[1,5-a]pyridine] | – | – | – | – | 3.24 to 31.6 µM | 32.4 to 100 µM | 3.24 to 31.6 µM | 32.4 to 100 µM |
| O=C(O)N1CCC(c2cc(C(F)(F)F)cc3cncn23)CC1 [Compound 1020] | + (+ = pIC50 4.00-4.49) | +/− (+/− = pIC50 <4.00) | + (+ = pIC50 4.00-4.49) | ++ (++ = pIC50 4.50-5.49) | – | – | – | – |
| CC(=O)Nc1ccc(C2CCN(c3cc(C(F)(F)F)cc4cncn34)CC2)cc1 [Compound 1024] | – | +++ (+++ = pIC50 ≥5.50) | ++ (++ = pIC50 4.50-5.49) | – | – | – | – | – |
| CNC(=O)c1ccc(C2CCN(c3cc(C(F)(F)F)cc4cncn34)CC2)cc1 [Compound 1025] | – | +++ (+++ = pIC50 ≥5.50) | ++ (++ = pIC50 4.50-5.49) | – | – | – | – | – |
| OC1(c2cc(C(F)(F)F)cn3cncc23)CCCCC1 [Compound 1028] | ++ (++ = pIC50 4.50-5.49) | ++ (++ = pIC50 4.50-5.49) | +++ (+++ = pIC50 ≥5.50) | – | – | – | – | – |
| CC(=O)N1CCN(c2cc(C(F)(F)F)cn3cncc23)CC1(C)C [Compound 1029] | – | ++ (++ = pIC50 4.50-5.49) | +++ (+++ = pIC50 ≥5.50) | – | – | – | – | – |
| CC(=O)N1CCN(c2cc(Cl)cn3cncc23)CC1(C)C [Compound 1033] | – | ++ (++ = pIC50 4.50-5.49) | +++ (+++ = pIC50 ≥5.50) | – | – | – | – | – |

Continued, values first:

| hIDO biochemical assay, pIC50 (IDO [1]) | SKOV3 Kynurenine cell based assay, pIC50 (IDO [2]) | A172 Kynurenine cell based assay, pIC50 (TDO [3]) | hTDO biochemical assay, pIC50 (TDO [4]) | IC50 (IDO [1]) | IC50 (IDO [2]) | IC50 (TDO [3]) | IC50 (TDO [4]; read-out: hTDO biochemical assay, pIC50 (converted)) | SMILES |
| --- | --- | --- | --- | --- | --- | --- | --- | --- |
| +/− (+/− = pIC50 <4.00) | + (+ = pIC50 4.00-4.49) | ++ (++ = pIC50 4.50-5.49) | – | – | – | – | – | CS(=O)(=O)N1CCN(c2cc(C(F)(F)F)cn3cncc23)CC1 [Compound 1003] |
| – | – | – | – | 3.24 to 31.6 µM | 32.4 to 100 µM | 3.24 to 31.6 µM | – | CS(=O)(=O)N1CCC(c2cc(C(F)(F)F)cn3cncc23)CC1 [Compound 1005, 8-(1-(methylsulfonyl)piperidin-4-yl)-6-(trifluoromethyl)imidazo[1,5-a]pyridine] |
| ++ (++ = pIC50 4.50-5.49) | + (+ = pIC50 4.00-4.49) | ++ (++ = pIC50 4.50-5.49) | – | – | – | – | – | CS(=O)(=O)N1CCN(c2cc(Cl)cn3cncc23)CC1 [Compound 1006] |
| +/− (+/− = pIC50 <4.00) | ++ (++ = pIC50 4.50-5.49) | +/− (+/− = pIC50 <4.00) | – | – | – | – | – | CS(=O)(=O)N1CCC(Nc2cc(C(F)(F)F)cn3cncc23)CC1 [Compound 1009] |
| ++ (++ = pIC50 4.50-5.49) | + (+ = pIC50 4.00-4.49) | ++ (++ = pIC50 4.50-5.49) | – | – | – | – | – | CS(=O)(=O)c1ccc(-c2cc(Cl)cc3cncn23)cc1 [Compound 1012] |
| ++ (++ = pIC50 4.50-5.49) | + (+ = pIC50 4.00-4.49) | + (+ = pIC50 4.00-4.49) | ++ (++ = pIC50 4.50-5.49) | – | – | – | – | CS(=O)(=O)N1CCN(c2cc(Cl)cc3cncn23)CC1 [Compound 1013] |
| – | – | – | – | – | ≤ 3.16 µM | ≤ 3.16 µM | – | CC1(C)CN(c2cc(C(F)(F)F)cn3cncc23)CCN1S(C)(=O)=O [Compound 1014, 8-(3,3-dimethyl-4-(methylsulfonyl)piperazin-1-yl)-6-(trifluoromethyl)imidazo[1,5-a]pyridine] |
| – | ++ (++ = pIC50 4.50-5.49) | +++ (+++ = pIC50 ≥5.50) | – | – | – | – | – | CC1(C)CN(c2cc(Cl)cn3cncc23)CCN1S(C)(=O)=O [Compound 1016] |
| + (+ = pIC50 4.00-4.49) | +/− (+/− = pIC50 <4.00) | ++ (++ = pIC50 4.50-5.49) | + (+ = pIC50 4.00-4.49) | – | – | – | – | CS(=O)(=O)N1CCC(c2cc(C(F)(F)F)cc3cncn23)CC1 [Compound 1017] |
| ++ (++ = pIC50 4.50-5.49) | + (+ = pIC50 4.00-4.49) | ++ (++ = pIC50 4.50-5.49) | ++ (++ = pIC50 4.50-5.49) | – | – | – | – | CC(=O)N1CCN(c2cc(C(F)(F)F)cc3cncn23)CC1 [Compound 1018] |
| ++ (++ = pIC50 4.50-5.49) | + (+ = pIC50 4.00-4.49) | ++ (++ = pIC50 4.50-5.49) | ++ (++ = pIC50 4.50-5.49) | – | – | – | – | CS(=O)(=O)N1CCN(c2cc(C(F)(F)F)cc3cncn23)CC1 [Compound 1019] |
| – | +++ (+++ = pIC50 ≥5.50) | +++ (+++ = pIC50 ≥5.50) | – | – | – | – | – | CC1(C)CN(c2cc(Br)cn3cncc23)CCN1S(C)(=O)=O [Compound 1022] |
| – | +++ (+++ = pIC50 ≥5.50) | ++ (++ = pIC50 4.50-5.49) | – | – | – | – | – | CS(=O)(=O)Nc1ccc(C2CCN(c3cc(C(F)(F)F)cc4cncn34)CC2)cc1 [Compound 1023] |
| – | +++ (+++ = pIC50 ≥5.50) | +++ (+++ = pIC50 ≥5.50) | – | – | – | – | – | CC1(C)CN(c2cc(C(F)(F)F)cc3cncn23)CCN1S(C)(=O)=O [Compound 1026] |
| ++ (++ = pIC50 4.50-5.49) | ++ (++ = pIC50 4.50-5.49) | ++ (++ = pIC50 4.50-5.49) | – | – | – | – | – | CS(=O)(=O)NC1CCN(c2cc(C(F)(F)F)cc3cncn23)CC1 [Compound 1027] |
| – | ++ (++ = pIC50 4.50-5.49) | ++ (++ = pIC50 4.50-5.49) | – | – | – | – | – | CS(=O)(=O)N1CCC(Nc2cc(Cl)cc3cncn23)CC1 [Compound 1030] |
| – | +++ (+++ = pIC50 ≥5.50) | +++ (+++ = pIC50 ≥5.50) | – | – | – | – | – | CC(=O)N1CCN(c2cc(Cl)cc3cncn23)CC1(C)C [Compound 1031] |
| – | +++ (+++ = pIC50 ≥5.50) | ++ (++ = pIC50 4.50-5.49) | – | – | – | – | – | CC1(C)CN(c2cc(Cl)cc3cncn23)CCN1S(C)(=O)=O [Compound 1032] |
